# Earlier results in US20250303004A1, “RADIOPHARMACEUTICAL COMPOSITIONS FOR LOW TOXICITY ACTINIUM IN TARGETED RADIONUCLIDE THERAPY” (Curium US LLC, priority 2021, published 2025).
# “Also recorded” adds a separate entry of the source. Where two headings read alike, the source gives them in different places.
# Key:
# patients with mCRPC [1] = details: 26 patients, cited from earlier work; for Biochemical response PSA50 (PSA decline of >50%): all progressed after ^177Lu-PSMA
# patient [2] = details: Sathekge 2019a; 1 patient; 8 MBq per cycle; cited from earlier work
# patient [3] = details: cited from earlier work
# patients with mCRPC [4] = details: cited from earlier work
# patients with mCRPC [5] = details: cited from earlier work; for Biochemical response PSA50 (PSA decline of more than 50%): 40 patients (38 evaluated)
# patients [6] = details: van der Doelen 2020; 13 patients; 6-8 MBq per cycle; cited from earlier work
# patient [7] = details: De Medeiros 2019; 1 patient; 6-8 MBq per cycle; cited from earlier work
# men with mCRPC = details: cited from earlier work
# kidneys = details: in vivo; cited from earlier work
# patients [8] = details: out of 60; cited from earlier work
# mCRPC patients = details: cited from earlier work
# [9] = test system: chemotherapy naive patients; details: cited from earlier work
# cerebral metastases = details: in vivo; cited from earlier work
# [10] = Feuerecker 2020, 4-8 MBq per cycle
# [11] = 3 cycles of mean 8.4 MBq, PSA 39.7 ng/ml at first cycle
# [12] = Yadav 2020, 28 patients, 100 kBq/kg per cycle
# [13] = group with previous ^177Lu-PSMA
# [14] = Kratochwil 2018, 40 patients, 100 kBq/kg per cycle
# [15] = 73 patients, percentage in parentheses
# [16] = Sathekge 2020, 73 patients, 4-8 MBq per cycle
# [17] = Kratochwil 2017, 14 patients, 50-200 kBq/kg per cycle
# [18] = Sathekge 2019b, 17 patients, 4-8 MBq per cycle
structure (smiles),measurement,setting,value
"O=C(O)CC[C@H](NC(=O)N[C@@H](CCCCNC(=O)[C@H](Cc1ccc2ccccc2c1)NC(=O)[C@H]1CC[C@H](CNC(=O)CN2CCN(CC(=O)O)CCN(CC(=O)O)CCN(CC(=O)O)CC2)CC1)C(=O)O)C(=O)O [^225Ac-PSMA-617, metal not drawn]",median overall survival,patients with mCRPC [1]; 95% CI 4.5-12.1 months,7.7 months
same,complete response,patients with mCRPC [1],no complete response was seen
same,patients refusing any further treatment due to severe xerostomia,patients with mCRPC [1],23%
same,patients with any PSA reduction,patients with mCRPC [1],88%
same,xerostomia,patients with mCRPC [1],Mild irreversible xerostomia was seen in all patients
same,patients with treatment discontinued to prevent further deterioration of marrow toxicity,patients with mCRPC [1]; pre-existing marrow toxicity,8%
same,Biochemical response PSA50 (PSA decline of >50%),patients with mCRPC [1]; [10],65%
same,Biochemical response PSA50 (PSA decline of >50%),"patients with mCRPC [1]; Feuerecker 2020, 4-8 MBq per cycle, listed as PSMA-617",65%
same,Major toxicity,patients with mCRPC [1]; [10],"xerostomia; also recorded: Hb↓, WBC↓, plt↓"
same,OS,patients with mCRPC [1]; [10],7.7 mo
same,PFS,patients with mCRPC [1]; [10],3.5 mo
same,Biochemical response PSA50,patient [2],100%
same,PSA level at second cycle,patient [3]; [11],7.7 ng/mL
same,PSA level at third cycle,patient [3]; [11],0.32 ng/mL
same,xerostomia,patient [3]; 3 cycles of mean 8.4 MBq,chronic xerostomia
same,creatinine,"patient [3]; January 2019, increased from 1.3 in October 2015",3.3 mg/dL
same,Biochemical response PSA50,patients with mCRPC [4]; [12],39%
same,Major toxicity,patients with mCRPC [4]; [12],xerostomia; also recorded: fatigue
same,OS,patients with mCRPC [4]; [12],17 mo
same,PFS,patients with mCRPC [4]; [12],12 mo
same,PSA decline of >50%,patients with mCRPC [4]; ^177Lu PSMA naïve group,53.8%
same,median survival,patients with mCRPC [4]; ^177Lu PSMA naïve group,12 months
same,overall survival,patients with mCRPC [4]; ^177Lu PSMA naïve group,17 months
same,progression rate,patients with mCRPC [4]; ^177Lu PSMA naïve group,22.3%
same,PSA decline of >50%,patients with mCRPC [4]; [13],26.6%
same,median survival,patients with mCRPC [4]; [13],10 months
same,overall survival,patients with mCRPC [4]; [13],16 months
same,progression rate,patients with mCRPC [4]; [13],46%
same,median duration of tumor control,"patients with mCRPC [5]; 40 patients, 100 kBq/kg",9 months
same,median overall survival,"patients with mCRPC [5]; 40 patients, 100 kBq/kg",more than 12 months
same,progression free survival (median),"patients with mCRPC [5]; 40 patients, 100 kBq/kg",7.0 months
same,Biochemical response PSA50 (PSA decline of more than 50%),"patients with mCRPC [5]; Kratochwil 2018, 100 kBq/kg per cycle",63%
same,Biochemical response PSA50 (PSA decline of more than 50%),"patients with mCRPC [5]; Kratochwil 2018, 100 kBq/kg per cycle, listed as PSMA-617",63%
same,Major toxicity,patients with mCRPC [5]; [14],xerostomia
same,OS,patients with mCRPC [5]; [14],na/>12 mo
same,patients demonstrating any PSA response,patients with mCRPC [5]; of 38 patients surviving at least 8 weeks,87%
same,Biochemical response PSA50,patients [6],69%
same,Major toxicity,patients [6],xerostomia
same,OS,patients [6],na/8.5 mo
same,Biochemical response PSA50,patient [7],100%
same,Major toxicity,patient [7],xerostomia; also recorded: xerophtalmia
same,Median PFS,"men with mCRPC; 73 patients, 95% CI, 13.1-17.4 months",15.2 months
same,Median OS,"men with mCRPC; 73 patients, 95% CI, 16.2-19.9 months",18 months
same,"Anemia, Grade I or II",men with mCRPC; 73 patients,22 patients
same,"Anemia, Grade IV",men with mCRPC; 73 patients,0 patients
same,"Anorexia, Grade I or II",men with mCRPC; 73 patients,23 patients
same,"Anorexia, Grade III",men with mCRPC; 73 patients,0 patients
same,"Anorexia, Grade IV",men with mCRPC; 73 patients,0 patients
same,"Constipation, Grade I or II",men with mCRPC; 73 patients,19 patients
same,"Constipation, Grade III",men with mCRPC; 73 patients,0 patients
same,"Constipation, Grade IV",men with mCRPC; 73 patients,0 patients
same,"Dry eyes, Grade I or II",men with mCRPC; 73 patients,4 patients
same,"Dry eyes, Grade III",men with mCRPC; 73 patients,0 patients
same,"Dry eyes, Grade IV",men with mCRPC; 73 patients,0 patients
same,"Dry mouth, Grade I or II",men with mCRPC; 73 patients,62 patients
same,"Dry mouth, Grade III",men with mCRPC; 73 patients,0 patients
same,"Dry mouth, Grade IV",men with mCRPC; 73 patients,0 patients
same,"Dysgeusia, Grade I or II",men with mCRPC; 73 patients,4 patients
same,"Dysgeusia, Grade III",men with mCRPC; 73 patients,0 patients
same,"Dysgeusia, Grade IV",men with mCRPC; 73 patients,0 patients
same,"Dyspepsia, Grade I or II",men with mCRPC; 73 patients,3 patients
same,"Dyspepsia, Grade III",men with mCRPC; 73 patients,0 patients
same,"Dyspepsia, Grade IV",men with mCRPC; 73 patients,0 patients
same,"Dysuria, Grade I or II",men with mCRPC; 73 patients,13 patients
same,"Dysuria, Grade III",men with mCRPC; 73 patients,0 patients
same,"Dysuria, Grade IV",men with mCRPC; 73 patients,0 patients
same,"Fatigue, Grade I or II",men with mCRPC; 73 patients,37 patients
same,"Fatigue, Grade III",men with mCRPC; 73 patients,0 patients
same,"Fatigue, Grade IV",men with mCRPC; 73 patients,0 patients
same,"Hypoalbuminemia, Grade I or II",men with mCRPC; 73 patients,14 patients
same,"Hypoalbuminemia, Grade III",men with mCRPC; 73 patients,0 patients
same,"Hypoalbuminemia, Grade IV",men with mCRPC; 73 patients,0 patients
same,"Leukopenia, Grade I or II",men with mCRPC; 73 patients,7 patients
same,"Leukopenia, Grade IV",men with mCRPC; 73 patients,0 patients
same,"Nausea, Grade I or II",men with mCRPC; 73 patients,15 patients
same,"Nausea, Grade III",men with mCRPC; 73 patients,0 patients
same,"Nausea, Grade IV",men with mCRPC; 73 patients,0 patients
same,"Renal Failure, Grade I or II",men with mCRPC; 73 patients,18 patients
same,"Thrombocytopenia, Grade I or II",men with mCRPC; 73 patients,6 patients
same,"Thrombocytopenia, Grade IV",men with mCRPC; 73 patients,0 patients
same,"Vomiting, Grade I or II",men with mCRPC; 73 patients,4 patients
same,"Vomiting, Grade III",men with mCRPC; 73 patients,0 patients
same,"Vomiting, Grade IV",men with mCRPC; 73 patients,0 patients
same,"Weight loss, Grade I or II",men with mCRPC; 73 patients,28 patients
same,"Weight loss, Grade III",men with mCRPC; 73 patients,0 patients
same,"Weight loss, Grade IV",men with mCRPC; 73 patients,0 patients
same,patients with negative ^68Ga-PSMA PET/CT images post therapy,men with mCRPC; 73 patients,29%
same,"Anemia, Grade III",men with mCRPC; [15],5 (7) patients
same,"Leukopenia, Grade III",men with mCRPC; [15],2 (3) patients
same,"Renal Failure, Grade III",men with mCRPC; [15],3 (4) patients
same,"Renal Failure, Grade IV",men with mCRPC; [15],2 (3) patients
same,"Thrombocytopenia, Grade III",men with mCRPC; [15],1 (1) patients
same,Biochemical response PSA50 (≥50% PSA decline),men with mCRPC; [16],70%
same,OS,men with mCRPC; [16],18.0 mo
same,PFS,men with mCRPC; [16],15.2 mo
same,Biochemical response PSA50 (≥50% PSA decline),"men with mCRPC; Sathekge 2020, 73 patients, 4-8 MBq per cycle, listed as PSMA-617",70%
same,patients with any decline in PSA,"men with mCRPC; at the end of therapy, 73 patients",82%
same,patients who had passed away,men with mCRPC; of 73,13 patients
same,patients with disease progression,men with mCRPC; of 73,23 patients
same,kidney function,kidneys,deteriorated
same,route of excretion,kidneys,predominantly renal excretion
same,patients with poor response despite sufficient tumor uptake in PSMA PET/CT,patients [8],10 patients
same,Biochemical response PSA50,mCRPC patients; [17],44%
same,Major toxicity,mCRPC patients; [17],xerostomia
same,OS,mCRPC patients; [17],na/8.5 mo
same,duration of prostate-specific antigen decline,mCRPC patients; at 100 kBq/kg,less than 4 months
same,dose-limiting toxicity,mCRPC patients; if treatment activity exceeded 100 kBq/kg per cycle,severe xerostomia
same,patients with remarkable antitumor activity (objective radiologic response or tumor marker decline),mCRPC patients; of 11 evaluable patients,9 patients
same,toxicity,mCRPC patients; treatment activities of 50 kBq/kg,without toxicity
same,antitumor response,"mCRPC patients; treatment activities of 50 kBq/kg, high-tumor-burden patients",insufficient antitumor response
same,most frequently noted side-effect,"[9]; 17 patients, no discontinuation due to severe symptoms",Grade 1-2 xerostomia
same,Biochemical response PSA50,[9]; [18],88%
same,Major toxicity,[9]; [18],xerostomia
same,nephrotoxicity,"[9]; a patient with only a single functional kidney, poor renal functioning from baseline",Grade 4 nephrotoxicity
same,patients with PSA decline >90%,"[9]; at end of therapy, 17 patients",82%
same,patients still alive,[9]; median follow up of 13 months post initiation of treatment,82%
same,surviving patients in remission with undetectable serum PSA levels,[9]; median follow up of 13 months,50%
same,surviving patients with stable disease,[9]; median follow up of 13 months,50%
same,blood-brain barrier crossing,cerebral metastases,crosses the blood-brain barrier
same,effect on cerebral metastases,cerebral metastases,significant regression of cerebral metastases
